Measured values reported in ChEMBL document CHEMBL1201862, “PubChem BioAssay data set” (2004).
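1) Cells in 96-well plates. 2) Compound, 48 h, 5 concentrations. 3) Linear interpolation between surrounding doses. 4) Unreached endpoint = highest concentration. GI50 = concentration required for 50% inhibition of growth.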 Active and inactive are the calls of the source. Cut-off read from the data, not from the text of the source: active = GI50 up to about 1.1 µM and inactive = higher.

Experiments:
Assay in all cases: NCI anticancer screen, dose series, 48 h
A498 = test system: A498
CCRF-CEM = test system: CCRF-CEM
NCI-H23 = test system: NCI-H23
U-251 = test system: U-251
KM12 = test system: KM12
HL-60 = test system: HL-60
HT-29 = test system: HT-29
M14 = test system: M14
SN12C = test system: SN12C
786-0 = test system: 786-0
OVCAR-5 = test system: OVCAR-5
Malme-3M = test system: Malme-3M
UO-31 = test system: UO-31
SF-539 = test system: SF-539
RPMI-8226 = test system: RPMI-8226
SK-MEL-5 = test system: SK-MEL-5

Measured: GI50

N=c1oc2c(O)c(O)ccc2cc1C(N)=O
inactive: A498 > 100 µM | CCRF-CEM 21.6 µM | NCI-H23 > 100 µM | U-251 90.6 µM | KM12 > 100 µM | HL-60 > 10 µM | HT-29 > 100 µM | M14 43 µM | SN12C > 100 µM | 786-0 12 µM | OVCAR-5 > 100 µM | Malme-3M 84.3 µM | UO-31 > 100 µM | SF-539 > 100 µM | RPMI-8226 32.1 µM

CN1C(=O)c2cccc3c([N+](=O)[O-])ccc(c23)C1=O
inactive: A498 2.65 µM | CCRF-CEM 7.24 µM | NCI-H23 11.9 µM | U-251 3.7 µM | KM12 4.94 µM | SK-MEL-5 18.3 µM | M14 11.1 µM | SN12C 12.4 µM | 786-0 8.85 µM | OVCAR-5 3.5 µM | Malme-3M 16.2 µM | UO-31 13.7 µM | SF-539 13.2 µM

O=C(O)/C=C/n1c2ccccc2c(=O)c2ccccc21
inactive: A498 > 100 µM | CCRF-CEM > 100 µM | NCI-H23 > 100 µM | U-251 > 100 µM | KM12 > 100 µM | HL-60 > 100 µM | HT-29 > 100 µM | M14 > 100 µM | SN12C > 100 µM | 786-0 > 100 µM | OVCAR-5 > 100 µM | Malme-3M > 100 µM | UO-31 > 100 µM | SF-539 > 100 µM | RPMI-8226 > 100 µM

CC(=O)Nc1ccc(C(=O)NN2C(=O)C(Cl)C2c2ccc([N+](=O)[O-])cc2)cc1 (configuration not stated)
inactive: A498 > 100 µM | CCRF-CEM > 100 µM | NCI-H23 > 100 µM | U-251 > 100 µM | HL-60 > 100 µM | SK-MEL-5 > 100 µM | HT-29 > 100 µM | M14 > 100 µM | SN12C > 100 µM | 786-0 > 100 µM | OVCAR-5 > 100 µM | Malme-3M > 100 µM | UO-31 > 100 µM | SF-539 > 100 µM

NC(CCC(=O)NC(CSC(=O)N(O)c1ccccc1)C(=O)NCC(=O)O)C(=O)O (configuration not stated)
inactive: A498 > 1000 µM | CCRF-CEM > 1000 µM | NCI-H23 > 1000 µM | U-251 > 1000 µM | KM12 > 1000 µM | HL-60 > 1000 µM | SK-MEL-5 > 1000 µM | HT-29 > 1000 µM | M14 > 1000 µM | SN12C > 1000 µM | 786-0 > 1000 µM | OVCAR-5 > 1000 µM | Malme-3M > 1000 µM | UO-31 918 µM | SF-539 > 1000 µM

CCOC(=O)NC(=O)c1cn(CCN2CCNCC2)c(=O)[nH]c1=O
inactive: CCRF-CEM > 100 µM | NCI-H23 > 100 µM | U-251 > 100 µM | KM12 > 100 µM | HL-60 > 100 µM | SK-MEL-5 > 100 µM | HT-29 > 100 µM | M14 > 100 µM | SN12C > 100 µM | 786-0 > 100 µM | OVCAR-5 > 100 µM | SF-539 > 100 µM | RPMI-8226 > 100 µM

COc1ccc(CNc2cnc3cc(N)ccc3n2)cc1OC
inactive: CCRF-CEM > 100 µM | KM12 > 100 µM | HL-60 > 100 µM | SK-MEL-5 > 100 µM | HT-29 > 100 µM | M14 > 100 µM | SN12C > 100 µM | 786-0 > 100 µM | OVCAR-5 > 10 µM | Malme-3M > 100 µM | UO-31 > 100 µM | SF-539 > 100 µM | RPMI-8226 > 100 µM

Cc1cn(C2CC(CCCO)C(CO)O2)c(=O)[nH]c1=O (configuration not stated)
inactive: A498 > 100 µM | NCI-H23 > 100 µM | U-251 > 100 µM | KM12 > 100 µM | HL-60 > 100 µM | SK-MEL-5 > 100 µM | HT-29 > 100 µM | M14 > 100 µM | SN12C > 100 µM | 786-0 > 100 µM | OVCAR-5 > 100 µM | Malme-3M > 100 µM | UO-31 > 100 µM | RPMI-8226 > 100 µM

FC(F)(F)c1ccc2nc(NCc3ccccc3)c(-c3ccccc3)nc2c1
inactive: CCRF-CEM 37.2 µM | NCI-H23 53.7 µM | U-251 21 µM | HL-60 19.3 µM | HT-29 36 µM | SN12C 36.6 µM | 786-0 20.3 µM | OVCAR-5 90.2 µM | Malme-3M 25.4 µM | UO-31 25 µM | SF-539 30.2 µM | RPMI-8226 36.4 µM

Cc1ccc(/C=C(\C#N)c2ccccc2)cc1
inactive: A498 > 100 µM | CCRF-CEM > 100 µM | NCI-H23 > 100 µM | U-251 > 100 µM | KM12 > 100 µM | SK-MEL-5 > 100 µM | HT-29 > 100 µM | M14 > 100 µM | SN12C > 100 µM | 786-0 > 100 µM | OVCAR-5 > 100 µM | UO-31 > 100 µM | SF-539 > 100 µM | RPMI-8226 > 100 µM

CCOC(=O)[C@H]1Nc2ccc(Cl)cc2[C@H]2CCC[C@@H]12
inactive: NCI-H23 > 100 µM | U-251 > 100 µM | KM12 > 100 µM | SK-MEL-5 71.6 µM | HT-29 36.7 µM | M14 > 100 µM | SN12C > 100 µM | 786-0 > 100 µM | OVCAR-5 63.5 µM | Malme-3M > 100 µM | UO-31 99.8 µM | SF-539 > 100 µM | RPMI-8226 > 100 µM

C[C@H]1[C@H](C)CC[C@]2(C(=O)O)CCC3(COC(=O)/C=C/c4ccc(O)cc4)C(=CCC4[C@@]5(C)CC[C@H](O)C(C)(C)C5CC[C@]43C)[C@H]12 (some centres not stated)
inactive: A498 4.06 µM | CCRF-CEM 3.84 µM | U-251 2.33 µM | KM12 3.47 µM | HL-60 7.96 µM | SK-MEL-5 11 µM | HT-29 6.12 µM | M14 11.2 µM | SN12C 5.68 µM | 786-0 5.16 µM | OVCAR-5 14.8 µM | Malme-3M 19.3 µM | UO-31 4.82 µM | SF-539 4.17 µM | RPMI-8226 5.05 µM

CC(C)C(CCOS(=O)(=O)O)CCC(C)[C@H]1[C@@H](O)C(O)C2[C@]3(O)C[C@@H](O)C4(O)C[C@@H](O)CC[C@]4(C)C3CC[C@@]21C (some centres not stated)
inactive: CCRF-CEM > 100 µM | NCI-H23 > 100 µM | U-251 > 100 µM | KM12 > 100 µM | HL-60 > 100 µM | SK-MEL-5 > 100 µM | HT-29 > 100 µM | M14 > 100 µM | SN12C > 100 µM | 786-0 > 100 µM | Malme-3M > 100 µM | UO-31 > 100 µM | SF-539 > 100 µM | RPMI-8226 > 100 µM

c1ccc2nc(-c3ccc4c(c3)OCO4)ccc2c1
inactive: NCI-H23 47.1 µM | U-251 53.6 µM | KM12 24.7 µM | HL-60 29.1 µM | HT-29 24.7 µM | M14 54.2 µM | SN12C 43.2 µM | 786-0 76.7 µM | OVCAR-5 48.5 µM | Malme-3M 18 µM | UO-31 20 µM | SF-539 56.9 µM
